Calls of active or inactive are those of the source. No cut-off for these calls is given here.
How the values were obtained:
SK-BR-3 [1] = assay: Cytotoxicity against human SKBr3 assessed as reduction cell viability at 10 uM by SRB assay; format: functional
MDA-MB-231 = assay: Cytotoxicity against human MDA-MB-231 cells assessed as reduction in cell viability at 10 uM by SRB assay; format: functional, cell-based
MCF7 [2] = assay: Cytotoxicity against human MCF-7 assessed as reduction cell viability at 10 uM by SRB assay; format: functional
[3] = target: Receptor tyrosine-protein kinase erbB-2 (Homo sapiens) (UniProt P04626); assay: Inhibition of HER2 (unknown origin) at 10 uM by ELISA
Chain of Receptor tyrosine-protein kinase erbB-2 (Homo sapiens) (P04626 whole entry): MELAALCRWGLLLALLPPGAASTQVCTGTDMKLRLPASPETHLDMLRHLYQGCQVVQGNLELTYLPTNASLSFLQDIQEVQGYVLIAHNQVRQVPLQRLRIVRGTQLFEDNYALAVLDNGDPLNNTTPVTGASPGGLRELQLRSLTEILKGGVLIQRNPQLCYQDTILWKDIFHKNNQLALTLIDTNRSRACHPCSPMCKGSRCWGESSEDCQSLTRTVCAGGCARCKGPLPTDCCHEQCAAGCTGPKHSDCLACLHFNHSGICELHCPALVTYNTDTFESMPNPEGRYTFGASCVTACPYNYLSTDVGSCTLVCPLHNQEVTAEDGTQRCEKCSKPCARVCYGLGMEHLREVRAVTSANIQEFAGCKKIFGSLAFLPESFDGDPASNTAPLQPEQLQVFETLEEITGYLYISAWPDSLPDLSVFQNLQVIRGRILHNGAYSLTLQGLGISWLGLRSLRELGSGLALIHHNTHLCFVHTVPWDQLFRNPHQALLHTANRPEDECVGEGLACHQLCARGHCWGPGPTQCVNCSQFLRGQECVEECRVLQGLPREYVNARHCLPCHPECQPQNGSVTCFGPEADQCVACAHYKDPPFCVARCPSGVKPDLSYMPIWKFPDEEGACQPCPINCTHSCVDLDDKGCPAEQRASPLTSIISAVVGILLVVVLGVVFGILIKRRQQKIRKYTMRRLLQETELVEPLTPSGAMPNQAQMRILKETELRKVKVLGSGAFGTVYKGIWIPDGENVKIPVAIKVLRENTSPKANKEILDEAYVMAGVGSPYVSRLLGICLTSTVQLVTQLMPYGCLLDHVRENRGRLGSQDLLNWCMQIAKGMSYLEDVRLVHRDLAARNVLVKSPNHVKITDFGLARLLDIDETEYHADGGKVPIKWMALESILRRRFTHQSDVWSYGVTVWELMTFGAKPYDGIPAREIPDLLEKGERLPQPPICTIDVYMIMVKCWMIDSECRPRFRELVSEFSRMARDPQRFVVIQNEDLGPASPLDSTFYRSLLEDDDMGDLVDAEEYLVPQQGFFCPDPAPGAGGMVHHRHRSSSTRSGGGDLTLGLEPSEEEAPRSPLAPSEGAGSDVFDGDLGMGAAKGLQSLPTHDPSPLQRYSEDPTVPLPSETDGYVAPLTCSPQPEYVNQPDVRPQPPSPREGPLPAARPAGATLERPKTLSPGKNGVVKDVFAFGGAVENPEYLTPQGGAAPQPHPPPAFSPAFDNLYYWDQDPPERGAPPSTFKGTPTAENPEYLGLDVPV

MCF7 [4] = assay: Cytotoxicity against human MCF-7 assessed as reduction in cell viability by SRB assay
SK-BR-3 [5] = assay: Cytotoxicity against human SKBr3 assessed as reduction in cell viability by SRB assay

inhibition [3] | SMILES | inhibition at 10 µM (SK-BR-3 [1]) | inhibition (MDA-MB-231) | inhibition at 10 µM (MCF7 [2]) | IC50 (MCF7 [4]) | IC50 (SK-BR-3 [5])
87% | S=C(Nc1ccc(Cl)cc1Cl)Nc1ncccc1Br | 79.7% | inactive | 72.4% | 1.3 µM | 0.73 µM
82.6% | S=C(Nc1ccc(Cl)cc1Br)Nc1ncccc1Br | 74.8% | inactive | 64.1% | 2.5 µM | 3.4 µM
84.7% | S=C(NCCc1ccccc1)Nc1ncccc1Br | 78.8% | inactive | 63% | 16.2 µM | 1.11 µM

Continued, compound first:

SMILES | inhibition [3] | inhibition at 10 µM (SK-BR-3 [1]) | inhibition (MDA-MB-231) | inhibition at 10 µM (MCF7 [2]) | IC50 (MCF7 [4]) | IC50 (SK-BR-3 [5])
Cc1ccc(S(=O)(=O)NC(=O)Nc2ncccc2Br)cc1 |  |  | inactive | 11.2% |  | 
COc1ccccc1CNC(=O)NS(=O)(=O)c1ccccc1 |  |  | inactive | 10.3% |  | 

Source: ChEMBL document CHEMBL4699607, “Design, synthesis, and computational validation of novel compounds selectively targeting HER2-expressing breast cancer” (Bioorg Med Chem Lett, 2020)
